Measurements reported in publication PMC5501398 (PLoS ONE, 2017).

Target: T1, VcIIPK (Vibrio cholerae, UniProt Q9KQJ0)
T1 construct: gene VC_2008
Assay: biochemical

T1 sequence (Q9KQJ0 1-481 limits assumed): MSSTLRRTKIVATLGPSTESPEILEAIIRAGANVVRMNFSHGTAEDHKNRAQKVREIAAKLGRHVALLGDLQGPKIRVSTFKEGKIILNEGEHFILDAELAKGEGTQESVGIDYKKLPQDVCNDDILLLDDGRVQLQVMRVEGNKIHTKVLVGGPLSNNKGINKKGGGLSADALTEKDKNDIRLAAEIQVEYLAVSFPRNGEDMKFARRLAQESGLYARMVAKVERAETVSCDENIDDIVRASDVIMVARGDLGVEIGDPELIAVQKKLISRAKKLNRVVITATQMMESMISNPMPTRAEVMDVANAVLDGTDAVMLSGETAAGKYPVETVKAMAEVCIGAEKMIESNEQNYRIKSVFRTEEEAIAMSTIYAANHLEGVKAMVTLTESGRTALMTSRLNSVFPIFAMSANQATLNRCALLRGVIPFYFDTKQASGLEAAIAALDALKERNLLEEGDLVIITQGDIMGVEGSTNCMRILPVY

O=C(O)C(=O)O [oxalate]
Ki: 71 ± 6 µM
